Experimental data taken from patent US6726894B1, “Transport vehicles for macromolecules” (priority 1995, dated 2004).

What was measured:
COS-7 cells [1] = test: Transfection of COS-7 cells (CAT-assay); format: cell-based
COS-7 cells [2] = test: Toxicity study, residual protein content of COS-7 cells

In the case of `CCCCCCCCC=CCCCCCCCCC(CCCCCCCCC=CCCCCCCCC)c1cc[n+](C)cc1.[Cl-]` (stereo not drawn) [SAINT-2, 1-Methyl-4-(19-cis,cis-heptatritiaconta-9,28-dienyl)pyridinium Chloride], the “transfection efficiency with respect to DOTMA/DOPE vesicles” value (COS-7 cells [1]; COS-7 cells, FIG. 1) is reported as “eight”, the “transfection efficiency with respect to Lipofectine” value (COS-7 cells [1]; dependent on the cell type) is reported as “at least eight” and the “lipid concentration from which decrease of protein content was observed” value (COS-7 cells [2]) is reported as 90 µM. The “toxicity compared with DOTMA-DOPE” value (COS-7 cells [2]) was “clearly less toxic” and the “residual protein content after decrease” value (COS-7 cells [2]; decrease from 2 mg/ml) was 1.75 mg/mL.
